Data from patent US6602854B1, “Branched multimeric Apo A-I agonist compounds” (priority 1997, dated 2003).
Where a SMILES comes first, the peptide text is derived from it. Where no end group is shown, it is not given here. [ ]: non-standard residue; d: D form. Aib = CC(C)(N)C(=O)O

How the values were obtained:
[1] = biological target: T1, LCAT (purified from human plasma) (Homo sapiens, UniProt P04180); test: LCAT activation assay; assay type: biochemical; set-up: ACTIVITY (%) LCAT: concentration or dose not given beside the values; details: for ACTIVITY (%) LCAT: LCAT activation as compared with native human ApoA-I; for LCAT activation: as compared with native ApoA-I (100%)
T1 construct: from tissue; host or cells: human plasma
T1 sequence (P04180 25-440): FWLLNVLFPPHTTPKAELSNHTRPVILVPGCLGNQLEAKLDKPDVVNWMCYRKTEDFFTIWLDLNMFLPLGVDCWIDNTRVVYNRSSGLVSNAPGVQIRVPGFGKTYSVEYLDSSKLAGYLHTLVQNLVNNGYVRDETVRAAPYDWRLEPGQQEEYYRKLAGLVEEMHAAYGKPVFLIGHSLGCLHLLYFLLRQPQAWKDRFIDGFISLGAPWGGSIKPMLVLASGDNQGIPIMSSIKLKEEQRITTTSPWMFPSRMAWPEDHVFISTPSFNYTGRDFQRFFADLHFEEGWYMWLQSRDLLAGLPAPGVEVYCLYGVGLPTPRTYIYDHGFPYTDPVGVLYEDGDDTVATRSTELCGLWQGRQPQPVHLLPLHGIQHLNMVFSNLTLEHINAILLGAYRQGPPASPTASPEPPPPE
Procedure: The peptides synthesized as described in Section 6, supra, were analyzed in vitro for their ability to activate LCAT. In the LCAT assay, substrate vesicles (small unilamellar vesicles or “SUVs”) composed of egg phophatidylcholine (EPC) or 1-Palmitoyl-2-oleyl-phosphatidyl-choline (POPC) and radiolabelled cholesterol are preincubated with equivalent masses either of peptide or ApoA-I (isolated from human plasma). The reaction is initiated by addition of LCAT (purified from human plasma). Native ApoA-I, which was used as positive control, represents 100% activation activity. “Specific activity” (i.e., units of activity (LCAT activation)/unit of mass) of the peptides can be calculated as the concentration of peptide that achieves maximum LCAT activation. For example, a series of concentrations of the peptide (e.a., a limiting dilution) can be assayed to determine the “specific activity” for the peptide—the concentration which achieves maximal LCAT activation (i.e., percentage conversion of cholesterol to cholesterol ester) at a specific timepoint in the assay (e.g., 1 hr.). When plotting percentage conversion of cholesterol at, e.g., 1 hr., against the concentration of peptide used, the “specific activity” can be identified as the concentration of peptide that achieves a plateau on the plotted curve.
The vesicles used in the LCAT assay are SUVs composed of egg phosphatidylcholine (EPC) or 1-palmitoyl-2-oleyl-phosphatidylcholine (POPC) and cholesterol with a molar ratio of 20:1. To prepare a vesicle stock solution sufficient for 40 assays, 7.7 mg EPC (or 7.6 mg POPC; 10 μmol), 78 μg (0.2 μmol) 4-^14C-cholesterol, 116 μg cholesterol (0.3 μmol) are dissolved in 5 ml xylene and lyophilized. Thereafter 4 ml of assay buffer is added to the dry powder and sonicated under nitrogen atmosphere at 4° C. Sonication conditions: Branson 250 sonicator, 10 mm tip, 6×5 minutes; Assay buffer: 10 mM Tris, 0.14 M NaCl, 1 mM EDTA, pH 7.4). The sonicated mixture is centrifuged 6 times for 5 minutes each time at 14,000 rpm (16,000×g) to remove titanium particles. The resulting clear solution is used for the enzyme assay.
For the LCAT purification, dextran sulfate/Mg^2+ treatment of human plasma is used to obtain lipoprotein deficient serum (LPDS), which is sequentially chromatographed on Phenylsepharose, Affigelblue, ConcanavalinA sepharose and anti-ApoA-I affinity chromatography, as summarized for a representative purification in TABLE IX, below: […]

[2] = Circular dichroism: degree of helicity (free, SUVs, micelles, TFE); details: for He (%) free: percent helicity of free, unbound peptide; for He (%) SUVs: percent helicity of peptide-SUV complexes; for He (%) mics: percent helicity of peptide-micelle complexes; for He (%) TFE: percent helicity of peptide-TFE solution
Procedure: Far UV circular dichroism spectra were recorded between 190 and 260 nm (in 0.5 nm or 0.2 nm increments) with a AVIV62DS spectrometer (AVIV Associates, Lakewood, N.J., USA) equipped with a thermoelectric cell holder and sample changer. The instrument was calibrated with (+)-10-camphoric acid. Between one and three scans were collected for each sample, using 10 cm, 5 cm, 1 cm and 0.1 cm path length quartz Suprasil cells, respectively, for peptide concentrations of 10^−7 M to 10^−4 M. The bandwidth was fixed at 1.5 nm and the scan speed to 1 s per wavelength step. The reported data are the mean of at least 2 or 3 independent measurements.
After background substraction, spectra were converted to molar ellipticity (θ) per residue in deg. […] dmol^−1. The peptide concentration was determined by amino acid analysis and also by absorption spectrometry on a Perkin Elmer Lambda 17 UV/Visible spectrophotometer when the peptide contained a chromophore (tryptophane, dansyl, naphtylalanine).
CD spectra were obtained with free, unbound peptide (5 μM in 5 mM phosphate buffer, pH 7.4); with peptide-SUV complexes (20:1 EPC:Chol., Ri=30 and Ri=50); with peptide-micelle complexes (1-myristoyl-2-hydroxy-sn-glycero-3-phosphatidyl choline, Ri=100); and with free, unbound peptide in the presence of 2,2,2-trifluoroethanol (TFE) (5 μM peptide, 90% vol TFE).
The SUVs were obtained by dispersing the lipids (10 mM, 20:1 EPC:Chol., Avanti Polar Lipids, Ala.) in phosphate buffer (5 mM, pH 7.4) with bubbling N2 for 5 min., followed by sonication (1.5 hr.) in a bath sonicator. The homogeneity of the preparation was checked by FPLC.
The micelles were obtained by dispersing the lipid (6 mM 1-myristoyl-2-hydroxy-sn-glycero-3-phosphatidyl choline, Avanti Polar Lipids, AL) in phosphate buffer (5 mM, pH 7.4) with bubbling N2 for 5 min., followed by vortexing.
To obtain the peptide-SUV complexes, SUVs were added to the peptide (5 μM in 5 mM phosphate buffer, pH 7.4) at a phospholipid-peptide molar ratio (Ri) of 30 or 50.
To obtain the peptide-micelle complexes, micelles were added to the peptide (5 μM in 5 mM phosphate buffer, pH 7.4) at a Ri of 100.
All spectra were recorded at 37° C. The stability of peptide 4 (SEQ ID NO:4) as a function of temperature (both free in buffer and in micelles) was determined by recording spectra at a series of different temperatures.
The degree of helicity of peptide 4 (SEQ ID NO:4) as a function of concentration was also determined.
The degree of helicity of the peptides in the various conditions was determined from the mean residue ellipticity at 222 nm (Chen et al., 1974, Biochemistry 13:3350-3359) or by comparing the CD spectra obtained to reference spectra available on databases (16 helical reference spectra from Provencher & Glockner, 1981, Biochemistry 20:33-37; denatured protein reference spectra from Venyaminov et al., 1993, Anal. Biochem. 214:17-24) using the CONTIN curve-fitting algorithm version 2DP, CD-1 pack (Aug. 1982) (Provencher, 1982, Comput. Phys. Commun. 27:213-227, 229-242). Acceptable fit was determined using the statistical analysis methodology provided by the CONTIN algorithm.

[3] = test system: lipidic vesicles (EPC/Chol 5%); test: Fluorescence spectroscopy lipid binding; details: for I/Io / λmax: peptide 2 μM
Procedure: The lipid binding properties of the peptides synthesized in Section 6, supra, were tested by fluorescence measurements with labeled peptides, in the present case Tryptophane (Trp or W) or Naphtylalanine (Nal). The fluorescence spectra were recorded on a Fluoromax from Spex (Jobin-Yvon) equipped with a Xenon lamp of 150 W, two monochromators (excitation and emission), a photomultiplier R-928 for detection sensitive in the red up to 850 nm and a thermoelectric magnetic stirred cell holder. Quartz Suprasil cuvettes were used for measurements in the micromolar concentration range. A device of variable slits (from 0.4 to 5 nm) allows modulation of the incident and emitted intensities according to the concentration of peptide used. The reported values are in general the average of between 2 to 4 spectra. The peptide concentration is determined by absorption spectrometry on a Philips PU 8800 usng the absorption band of the Trp (ε280 nm=5,550 M^−1cm^−1 in Tris buffer) or the Nal (ε224 nm=92,770 M^−1cm^−1 in methanol).
Fluorescence spectra of the peptides were recorded between 290 nm and 450 nm in Tris-HCl buffer (20 mM, pH=7.5), in the presence and absence of lipidic vesicles. The small unilamellar vesicles were formed after rehydration in buffer of the lyophilized phospholipids, dispersion and tip sonification under a N2 stream. The lipids used were either Egg PC/Chol. (20:1) or POPC/Chol. (20:1). The spectra were recorded at a peptide concentration of 2 μM and at a temperature of 37° C. The fluorescence reference standard in the case of Trp was N-acetyltryptophanylamide (NATA).
Lipid binding studies were done through progressive lipidic vesicle addition to the peptide in solution at 2 μM (slits:5 nm in excitation and 1.5 nm in emission). Dilution effects were taken into account for the fluorescence intensity determination. The lipid concentrations were varied from 10 to 600 μM and the molar ratio of lipid to peptide (Ri) was varied from 5 to 300. The wavelength of excitation was set at 280 nm for both Trp and Nal.
The data were directly recorded and treated by an IBM-PC linked to the spectrofluorimeter through the DM3000F software from Spex. The spectra were corrected by substraction of the solvent contribution and by application of a coefficient given by the constructor taking into account the variation of the photomultiplier response versus the wavelength.
The fluorescence spectra of the peptides were characterized by the wavelength at their maximum of fluorescence emission and by their quantum yield compared to NATA in the case of peptides labeled with a tryptophane. The process of binding to lipids was analyzed by calculating the shift of the wavelength at the maximum of fluorescence emission, (λmax), and the variation of the relative. fluorescence intensity of emission versus the lipid concentration. The relative fluorescence intensity is defined as the following ratio: (I−I0)λmax/I0λmax. I and I0 are both measured at the (λmax) corresponding to the initial free state of the peptide, i.e., without lipids. I is the intensity at a defined lipid to peptide ratio and I0 is the same parameter measured in absence of lipids. The absence of these variations is relevant of the absence of interactions of the peptides with the lipids.

| Compound | ACTIVITY (%) LCAT [1] [%] | He (%) free [2] [%] | He (%) SUVs [2] [%] | He (%) mics [2] [%] | He (%) TFE [2] [%] | other results |
| --- | --- | --- | --- | --- | --- | --- |
| CC(=O)N1CCC[C@H]1C(=O)N[C@H](C(=O)N[C@@H](CC(C)C)C(=O)N[C@@H](CC(=O)O)C(=O)N[C@@H](CCC(=O)O)C(=O)N[C@@H](Cc1ccccc1)C(=O)N[C@@H](CCCN=C(N)N)C(=O)N[C@@H](CCC(=O)O)C(=O)N[C@@H](CCCCN)C(=O)N[C@@H](CC(C)C)C(=O)N[C@@H](CC(N)=O)C(=O)N[C@@H](CCC(=O)O)C(=O)N[C@@H](CCC(=O)O)C(=O)N[C@@H](CC(C)C)C(=O)N[C@@H](CCC(=O)O)C(=O)N[C@@H](C)C(=O)N[C@@H](CC(C)C)C(=O)N[C@@H](CCCCN)C(=O)N[C@@H](CCC(N)=O)C(=O)N[C@@H](CCCCN)C(=O)N[C@@H](CC(C)C)C(=O)N[C@@H](CCCCN)C(N)=O)C(C)C [Segrest's consensus 22-mer, reference compound] (Ac-PVLDEFREKLNEELEALKQKLK-NH2) | 10 |  |  |  |  | LCAT activation [1]: 10% |
| EWLEAFYKKVLEKLKELF [peptide 18AM4, reference compound] |  | 18 | 47 | 44 |  | LCAT activation [1]: less than 4% |
| PVLDLFRELLNELZEALKQKLK [peptide 27] | 44 | 72 | 82 | 92 | 81 |  |
| PVLDLFRELLNLXLEALKEKLK (PVLDLFRELLNL[Aib]LEALKEKLK) [peptide 102, X is Aib; Gln-19 replaced by Glu-19] |  |  |  |  |  | LCAT activation (in words) [1]: did not activate LCAT |
| PVLDLFRELWNELLEALKQKLK [peptide 15, peptide 4 containing a Trp residue at position 10] |  | 55 | 64 |  | 68 | lipid binding (in words) [3]: very high affinity; lipid to peptide molar ratio at maximum burying of the Tryptophane residue [3]: lower than 5; maximum of the Trp emission wavelength when bound to lipidic vesicles ([3]; EPC/Chol 5% vesicles, shifted from 332 nm): 323 nm; I/Io ([3]; Lipid:Peptide Molar Ratio (Ri) 0): 0; λmax ([3]; Ri 0 (buffer, no lipid)): 332 nm; I/Io ([3]; Ri 5): 10.8; λmax ([3]; Ri 5): 323 nm; I/Io ([3]; Ri 10): 13.2; λmax ([3]; Ri 10): 323.5 nm; I/Io ([3]; Ri 30): 17.5; λmax ([3]; Ri 30): 323 nm; I/Io ([3]; Ri 100): 26.4; λmax ([3]; Ri 100): 323 nm; I/Io ([3]; Ri 200): 43.5; λmax ([3]; Ri 200): 323 nm |
| pVLDLFRELLNELLEALKQKLK [peptide 21] | 57 |  |  |  |  |  |
| pVLDLFRELLNELLEALKQKLKK [peptide 5] | 90 |  |  |  |  |  |

Second part, led by results:

| ACTIVITY (%) LCAT [1] [%] | He (%) free [2] [%] | He (%) SUVs [2] [%] | He (%) mics [2] [%] | He (%) TFE [2] [%] | Compound | other results |
| --- | --- | --- | --- | --- | --- | --- |
| 61 | 70 | 80 | 96 |  | PVLDLFRELLNELLEALOQOLO [peptide 14] |  |
| 79 | 60 | 70 | 87 | 71 | PVLDLFRELLNELLEAZKQKLK [peptide 10] |  |
| 58 |  |  |  |  | pVLDLFRELLNEGLEALKQKLK [peptide 19] |  |
